Tested on: Carbonic anhydrase II enzyme
Experiment: SPR single injection competitive binding analysis of CBS in the presence of Furosemide
Experimental: The binding interaction analysis was carried out using a SPR cell having a sensing region wherein the bound ligand is Carbonic anhydrase II enzyme immobilized on the surface of the biosensor via amine coupling to ˜6500 RU. […] According to the method described above, the dispersion gradient was prepared by initially aspirating, pulling, the Furosemide into the sample holding line followed by pulling the buffer into the sample holding line. […] The dispersion gradient of CBS was prepared using 200 μl of a 2 μM of CBS and 100 μl of buffer. The dispersion gradient of CBS in buffer was prepared by initially aspirating the CBS into the sample holding line followed by pulling the buffer into the sample holding line. The resulting dispersion gradient was immediately injected at a flow rate of 50 μl/min through the SPR sensing region containing the bound ligand.
FIGS. 16-18 will be referenced with regard to the method of determining binding competitive analysis. FIG. 16 reflects the relative concentrations of analyte when performing a binding competition analysis.
In contrast, the relative concentration of CBS will increase as a dispersion gradient during the competitive analysis.
The binding response curves of FIG. 17 were prepared by injecting two samples. […]

## NS(=O)(=O)c1ccc(C(=O)O)cc1 [CBS, 4-carboxy-benzenesulfonamide]
Immobilized Carbonic anhydrase II, constant Furosemide, CBS dispersion gradient, Furosemide control curve subtracted
  binding of CBS to the ligand in the presence of Furosemide (subtracted binding interaction curves, FIG. 18): no binding
No control subtraction, curve remains substantially steady state
  qualitative analysis of binding interaction curve of CBS/Furosemide dispersion gradient (FIG. 17, lines 1 and 3): does not compete and does not contribute to the binding interaction

— patent US10564093B2, “Single injection competition assays” (Molecular Devices, LLC, priority 2015, dated 2020)
